Reference: PubChem BioAssay AID179 (DTP/NCI, 2004)
pEC50, pIC50: −log10 of the molar value. Active and inactive are the calls of the source.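 The calls were made as follows: active = compounds giving half or more protection of infected cells from virus-caused growth loss, again on retest; inactive = the rest.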 Where a SMILES comes first, the peptide text is derived from it. Bridges are numbered along the chain shown (N, C = ends). [ ]: non-standard residue; d: D form. Orn = NCCC[CH](N)C(=O)O

Tested on: CEM cells HIV-1 protection, formazan growth assay
Assay: NCI AIDS Antiviral Assay
Details: for pIC50: measured here: growth of uninfected CEM cells
In short: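 Protection of CEM cells against HIV-1 was scored from cell growth (soluble formazan) across five concentrations, with parallel uninfected cells. Lack of protection may reflect toxicity.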

Row | Compound | pEC50 | pIC50 | outcome
1 | COc1cc2c(c3oc(C)c(C)c(=O)c13)C=CC(C)(C)O2 | < 3.70 | 4.18 | –
2 | CC1=NN(C(=O)c2ccccc2O)C(=O)/C1=C/c1ccccc1O | < 4.51 | 7.21 | –
3 | Cc1ccc2oc(=O)cc(CC(=O)O)c2c1 | < 2.94 | < 2.94 | –
4 | COc1ccc(C2SC(N)=Nc3c2c(C)nn3C(=O)c2ccncc2)cc1OC (centres undefined) | 4.31 | 3.77 | –
5 | O=C(O)c1cc(O)c2ccc(N=Nc3ccc(/C=C/c4ccc(N=Nc5ccc6c(O)cc(C(=O)O)nc6c5O)cc4S(=O)(=O)O)c(S(=O)(=O)O)c3)c(O)c2n1 | 4.99 | 4.30 | –
6 | CS(=O)(=O)OCCNC[C@@H](O)[C@@H](O)CNCCOS(C)(=O)=O | < 3.16 | 5.86 | –
7 | Fc1ccc(/C=N\N=C(N/N=C/c2ccc(F)cc2)N/N=C/c2ccc(F)cc2)cc1 | < 3.70 | 4.71 | –
8 | Cc1ccc(S(=O)(=O)O/N=C2\CCC\C2=C/c2ccccc2)cc1 | – | – | inactive
9 | Cc1cc(C)c2c(=N)c3ccccc3n(CCCCCCCCn3c4ccccc4c(=N)c4c(C)cc(C)nc43)c2n1 | < 5.70 | 6.60 | –
10 | CC(C)N(CCCNc1c2ccccc2nc2cccc([N+](=O)[O-])c12)C(C)C | < 3.70 | 7.20 | –
11 | CC1=NNC(N)=N/C1=C\C(Sc1ccc(Cl)cc1)c1ccc([N+](=O)[O-])cc1 (centres undefined) | < 3.93 | 4.51 | –
12 | O=C(O)C12CCCC(CCC1)C2 | – | – | inactive
13 | COc1ccc(-c2c(C3=NCCCN3)nnn2-c2ccc(Cl)cc2)cc1 | 4.85 | 4.07 | –
14 | CCC1=NC(N/N=C/c2ccco2)=N/C1=C\c1ccccc1O | < 4.30 | – | –
15 | CN1C(=O)c2ccccc2Cc2c(Cl)ncnc21 | < 3.70 | 4.46 | –
16 | O=C(O)CCCC[P+](c1ccccc1)(c1ccccc1)c1ccccc1 | < 3.70 | < 3.70 | –
17 | Cc1ccc(S(=O)(=O)N/N=C/c2oc(-c3cccc([N+](=O)[O-])c3)c(-c3cccc([N+](=O)[O-])c3)c2[N+](=O)[O-])cc1 | < 4.33 | < 4.33 | –
18 | CC1CC(C#N)=C2NCCCCN2C1=O (centres undefined) | – | – | inactive
19 | [O-][n+]1onc2c1CCC(=N\O)/C2=N/Nc1ccccc1 | < 3.70 | 3.81 | –
20 | CC(=O)N(C(C)=O)n1c(Cc2ccc(C)cc2)nn(C(C)=O)c1=O | < 3.70 | < 3.70 | –
21 | CN(C)CCC(CCN(C)C)=NO | < 3.02 | < 3.02 | –
22 | Nc1ccc2oc3cccnc3c2c1 | < 3.01 | 3.43 | –

Row | Compound | pEC50 | pIC50 | outcome
23 | N[C@H]1C2C3CC4C5CC(C42)C1(c1ccccc1)C53 (some centres undefined) | < 3.18 | 4.27 | –
24 | CN(/N=C/c1cccc2cccnc12)c1ccccc1 | – | – | inactive
25 | COC(=O)C1=C(C(=O)OC)SC(=C2SC3=C(SC(=C4SCCS4)S3)S2)S1 | < 4.00 | < 4.00 | –
26 | O=S(/C=C/C=C/S(=O)(=O)c1ccccc1)c1ccccc1 (centres undefined) | < 3.70 | 6.01 | –
27 | Nc1nc(NNc2ccc(Cl)c(Cl)c2)cc(=O)[nH]1 | < 3.70 | 4.31 | –
28 | COC1OC(CO)C(O)C(OC(C)=O)C1NC(=O)N(CCCl)N=O (centres undefined) | < 3.17 | 3.38 | –
29 | C[N+]1(CCC(C(N)=O)(c2ccccc2)c2ccccc2)CCCC12CCCCC2 (centres undefined) | – | – | inactive
30 | Cc1cn(C2CC([Se]c3ccccc3)C(CO)O2)c(=O)[nH]c1=O (centres undefined) | < 3.70 | 4.02 | –
31 | CCC[C@@H]1C(=O)N=C(N)N1C(=O)OCc1ccccc1 | < 3.70 | < 3.70 | –
32 | O=C1c2cc3c(cc2CC1Br)CCC3 (centres undefined) | < 4.70 | 6.42 | –
33 | CC(=O)c1nc2ccccc2n1CC(=O)c1ccc(Cl)cc1 | < 3.70 | 5.87 | –
34 | c1ccc(-c2cc3ccc4cccnc4c3o2)cc1 | < 3.97 | 4.25 | –
35 | CSc1nnc2c(=O)n(C)c(=O)n(C)c2n1 | < 3.70 | 4.36 | –
36 | COc1cc(OC)c(C2c3cc4c(cc3OC(N3CCOCC3)C2C)OCO4)c(OC)c1 (centres undefined) | < 3.70 | 4.95 | –
37 | NC(=O)C1CCCNC(=O)CC(NC(=O)C(N)Cc2ccc(O)cc2)C(=O)NC(Cc2ccccc2)C(=O)N1 (centres undefined) (H-YDF[Orn]-NH2; lactam 2-4; configuration not given here) | < 4.00 | < 4.00 | –
38 | COc1cc2c(cc1O)C1C(O2)c2cc3c(cc2OC1(C)C)OC(C)(C)CC3 (centres undefined) | < 3.70 | 4.54 | –
39 | C=CCNC(=O)/C=C\C(=O)O | < 2.79 | < 2.79 | –
40 | Nc1ccccc1-c1noc(=O)[nH]1 | < 3.70 | < 3.70 | –
41 | N#C/C(=C1\OC(=N)C(c2ccc(Cl)cc2Cl)C1=O)c1ccc(Cl)cc1Cl (centres undefined) | – | – | inactive
42 | COC(=O)C1=C(O)c2ccc(Cl)cc2S(=O)(=O)N1C | < 3.70 | 4.06 | –
43 | O=Cc1ccc(-c2ccc(-c3ccc(CO)s3)o2)s1 | – | – | inactive
44 | CCOC(=O)c1c(NC(=O)c2cccs2)sc2c1CCC2 | 3.71 | < 3.70 | –

Row | Compound | pEC50 | pIC50 | outcome
45 | COc1cc2ccc3c(c2cc1OC)CCc1cn[nH]c1-3 | < 5.01 | < 5.01 | –
46 | Cc1c(CN2CCN(C)CC2)c(CN2CCN(C)CC2)c(C)n1-c1ccc(Cl)cc1 | < 3.82 | 4.58 | –
47 | Cc1ccc(SSCCCCCS(=O)O)cc1 | – | – | inactive
48 | CCOC(=O)NC(Nc1ccc(S(=O)(=O)Nc2ccc(OC)nn2)cc1)(C(F)(F)F)C(F)(F)F | < 3.70 | < 3.70 | –
49 | CC(=O)Nc1ccc(/C=c2\sc3nnc(/C=C/c4ccccc4)n3c2=O)cc1 | < 4.03 | < 4.03 | –
50 | O=c1[nH][nH]c(=O)c2nc(Nc3ccc(Cl)cc3)ncc12 | < 4.46 | < 4.46 | –
51 | CCC(C)C(NC(=O)C(CCC(N)=O)NC(=O)C1CCCN1)C(=O)NC(C(=O)NC(CC(C)C)C(=O)O)C(C)O (centres undefined) (H-PQITL-OH; configuration not given here) | – | – | inactive
52 | Cc1cc(SCC(=O)c2ccccc2[N+](=O)[O-])cc(C)[o+]1 | < 3.70 | 4.11 | –
53 | Cc1ccc(S(=O)(=O)Oc2nc3ccccc3nc2OS(=O)(=O)c2ccc(C)cc2)cc1 | < 3.70 | 4.41 | –
54 | CC(=O)Nc1ccc(S(=O)(=O)N/N=C/c2ccc(C)cc2)cc1 | < 3.40 | < 3.40 | –
55 | C[N+](C)(C)c1cc2c(nn1)Nc1ccccc1S2 | < 3.70 | 5.00 | –
56 | CC1C(C#N)(C#N)C(C#N)=C(N)C1(C)[N+](=O)[O-] (centres undefined) | < 3.70 | 4.56 | –
57 | CCC[CH2][Sn]1([CH2]CCC)[O]C(=O)c2cc(C)ccc2[O]1 | < 5.03 | 5.51 | –
58 | CN(CCSSCCN(C)/N=C/c1ccccc1)/N=C/c1ccccc1 | < 3.70 | < 3.70 | –
59 | O=c1c2c(-c3ccccc3)c3ccccc3nc2cnn1-c1ccccc1 | < 4.10 | < 4.10 | –
60 | Cc1cc(Nc2ccc(N=Nc3ccc(O)c4ncccc34)cc2)nc(C)n1 | < 3.70 | 5.19 | –
61 | CC(=O)C(=Cc1cccc(C)c1)C(C)=O | < 3.47 | 4.75 | –
62 | C[C@]12CC[C@@H](O)C[C@H]1CC[C@@H]1[C@@H]2[C@@H](O)C[C@@]2(C)[C@H]1CC[C@]2(O)[C@@H](O)CO | < 3.70 | < 3.70 | –
63 | CCN(CC)C1=Nc2ccccc2N(c2ccccc2)C(=S)C1 | < 3.70 | 4.07 | –
64 | CCCCCCCCCCCCCCCC(=O)OCC(C[As](=O)(O)O)OC(=O)CCCCCCCCCCCCCCC (centres undefined) | < 4.42 | < 4.42 | –
65 | CCc1ccccc1NC(=O)C1=C(C)NC(C)=C(C(=O)Nc2ccccc2CC)C1c1ccc2c(c1)OCO2 | < 4.86 | < 4.86 | –
66 | O=[N+]([O-])c1ccc(/C(=C\c2ccccc2)Cn2ccnc2)cc1 | < 3.70 | 4.50 | –

Row | Compound | pEC50 | pIC50 | outcome
67 | O=c1cc(-c2ccc(O)cc2)oc2cc(O[C@@H]3O[C@H](CO)[C@@H](O)[C@H](O)[C@H]3O)cc(O)c12 | < 3.70 | 5.34 | –
68 | Nc1ccccc1C(=O)NNC(=O)c1ccccc1O | < 3.70 | 4.78 | –
69 | O=C(O)c1cc(Cc2cc(C(c3ccc(O)c(C(=O)O)c3)c3ccc(O)c(C(=O)O)c3)cc(C(=O)O)c2O)ccc1O | 4.02 | 3.71 | –
70 | Cc1ccc(C(=O)Nc2ccc(S(=O)(=O)O)c3cc(S(=O)(=O)O)cc(S(=O)(=O)O)c23)cc1NC(=O)c1cccc(NC(=S)Nc2cccc(C(=O)Nc3cc(C(=O)Nc4ccc(S(=O)(=O)O)c5cc(S(=O)(=O)O)cc(S(=O)(=O)O)c45)ccc3C)c2)c1 | 4.00 | 3.27 | –
71 | CN1CCN2c3ccccc3CC(C#N)(C#N)C2C1 (centres undefined) | – | – | inactive
72 | N#Cc1ccc(Oc2cccc(N)c2)cc1C#N | < 3.67 | < 3.67 | –
73 | COc1c(N2CCCCC2)c2c(=O)c3ccccc3oc2c2c3ccccc3n(C)c12 | 3.77 | 3.71 | –
74 | O=Cc1ccc2c(c1)CC1(C2)Cc2ccc(C=O)cc2C1 | < 3.70 | 5.32 | –
75 | OC(c1nc2ccccc2s1)(C(F)(F)F)C(F)(F)F | – | – | inactive
76 | COc1c(C)c2c(c(C)c1Cl)Oc1c(C=O)c(O)c(Cl)c(C)c1C(=O)O2 | < 4.74 | < 4.74 | –
77 | CC(C)(Oc1ccccc1)C(=O)Sc1c(-c2ccccc2)c(=O)n(-c2ccccc2)c(=S)n1-c1ccccc1 | < 3.70 | 5.87 | –
78 | CC1(C)C2CCC1(CS(=O)(=O)Nc1ccccc1)C(=O)C2 (centres undefined) | < 3.70 | < 3.70 | –
79 | CCOP(=O)(OCC)C1C(=O)OC2(C)CCC1C2(C)C (centres undefined) | – | – | inactive
80 | COC(=O)C12CCC(C(F)(F)C1=O)C2(C)C (centres undefined) | < 3.70 | < 3.70 | –
81 | C=C(C)CC1(O)C(=O)C(OCC)=C1OCC (centres undefined) | < 3.70 | < 3.70 | –
82 | Oc1ccc(Nc2ccccc2)cc1 | < 3.85 | 4.61 | –
83 | Cc1nnc2c3c(-c4ccccc4)c(-c4ccccc4)oc3nc(N(C)C)n12 | – | – | inactive
84 | Cc1ccc(NC=O)cc1F | – | – | inactive
85 | O=C1CSC(c2c[nH]c3ccccc23)N1c1ccc(Cl)cc1 (centres undefined) | < 3.96 | < 3.96 | –
86 | Cc1c2ccccc2c(=O)n2c(-c3ccccn3)cccc12 | < 3.70 | 3.92 | –
87 | CC(=O)NC(CCC(=O)c1ccc(Cl)cc1)(C(=O)O)C(=O)O | < 3.70 | < 3.70 | –
